Common to all, as to test: KINOMEscan competitive binding
The target in experiment [1] is T1, Aurora kinase A (Homo sapiens, UniProt O14965).
T1 construct: purchased DiscoverX (KINOMEscan)
T1 sequence (O14965 1-403): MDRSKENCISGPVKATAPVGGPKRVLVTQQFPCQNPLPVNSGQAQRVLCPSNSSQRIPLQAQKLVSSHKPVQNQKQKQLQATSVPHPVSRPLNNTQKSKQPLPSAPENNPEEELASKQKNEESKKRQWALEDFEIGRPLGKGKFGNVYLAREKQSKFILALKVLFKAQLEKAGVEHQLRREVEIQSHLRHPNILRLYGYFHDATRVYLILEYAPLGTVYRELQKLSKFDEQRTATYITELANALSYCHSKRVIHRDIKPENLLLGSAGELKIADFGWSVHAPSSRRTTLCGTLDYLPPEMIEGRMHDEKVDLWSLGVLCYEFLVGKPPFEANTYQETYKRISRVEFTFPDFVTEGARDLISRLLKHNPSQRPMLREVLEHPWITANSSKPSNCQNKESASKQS
The source says:
(§1) The kinases were expressed as fusions to T7 bacteriophage. This is a sensitive, competitive binding assay where test compounds were used to displace immobilized ATP-site binding probe ligands from kinases of interest. The amount of kinase that remained bound to the immobilized probe ligands on the solid support was quantified. Percentage inhibition data were was plotted on kinome trees using the web-based tool KinMap (http://www.kinhub.org/kinmap) ([60]).

The target in experiment [2] is T2, FLT3 (Homo sapiens, UniProt P36888).
T2 construct: purchased DiscoverX (KINOMEscan)
T2 sequence (P36888 27-993): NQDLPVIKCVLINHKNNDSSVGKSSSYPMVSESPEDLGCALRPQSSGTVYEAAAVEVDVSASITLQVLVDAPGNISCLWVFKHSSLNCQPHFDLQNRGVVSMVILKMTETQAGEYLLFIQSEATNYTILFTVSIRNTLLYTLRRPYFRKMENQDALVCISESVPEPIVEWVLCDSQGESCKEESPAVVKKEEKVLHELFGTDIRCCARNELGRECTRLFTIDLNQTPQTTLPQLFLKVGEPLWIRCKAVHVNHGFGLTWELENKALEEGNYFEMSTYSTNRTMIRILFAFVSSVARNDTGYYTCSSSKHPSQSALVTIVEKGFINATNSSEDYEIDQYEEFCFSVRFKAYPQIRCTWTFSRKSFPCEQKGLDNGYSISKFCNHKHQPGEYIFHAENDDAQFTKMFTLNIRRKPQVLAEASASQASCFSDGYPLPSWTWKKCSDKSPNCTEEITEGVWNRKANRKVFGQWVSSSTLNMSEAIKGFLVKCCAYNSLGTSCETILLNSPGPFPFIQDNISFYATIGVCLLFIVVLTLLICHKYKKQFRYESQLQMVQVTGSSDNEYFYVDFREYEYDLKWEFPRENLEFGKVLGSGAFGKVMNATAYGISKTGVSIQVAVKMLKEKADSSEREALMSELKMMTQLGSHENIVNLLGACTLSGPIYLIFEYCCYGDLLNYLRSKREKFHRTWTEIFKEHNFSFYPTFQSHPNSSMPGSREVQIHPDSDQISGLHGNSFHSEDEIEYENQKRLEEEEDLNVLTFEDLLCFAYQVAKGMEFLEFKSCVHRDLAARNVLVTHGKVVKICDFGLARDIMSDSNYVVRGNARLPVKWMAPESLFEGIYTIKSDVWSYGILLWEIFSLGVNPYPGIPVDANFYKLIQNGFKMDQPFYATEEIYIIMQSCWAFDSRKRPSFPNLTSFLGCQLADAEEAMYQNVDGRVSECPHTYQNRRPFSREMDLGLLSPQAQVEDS
Description: as §1

The target in experiment [3] is T3, PDGFRα (Homo sapiens, UniProt P16234).
T3 construct: purchased DiscoverX (KINOMEscan)
Description: as §1

Experiment [4] addresses T4, CDK2 (Homo sapiens, UniProt P24941).
T4 construct: purchased DiscoverX (KINOMEscan)
Description: as §1

For experiment [5], the target named is T5, AXL (Homo sapiens, UniProt P30530).
T5 construct: purchased DiscoverX (KINOMEscan)
T5 sequence (P30530 26-894): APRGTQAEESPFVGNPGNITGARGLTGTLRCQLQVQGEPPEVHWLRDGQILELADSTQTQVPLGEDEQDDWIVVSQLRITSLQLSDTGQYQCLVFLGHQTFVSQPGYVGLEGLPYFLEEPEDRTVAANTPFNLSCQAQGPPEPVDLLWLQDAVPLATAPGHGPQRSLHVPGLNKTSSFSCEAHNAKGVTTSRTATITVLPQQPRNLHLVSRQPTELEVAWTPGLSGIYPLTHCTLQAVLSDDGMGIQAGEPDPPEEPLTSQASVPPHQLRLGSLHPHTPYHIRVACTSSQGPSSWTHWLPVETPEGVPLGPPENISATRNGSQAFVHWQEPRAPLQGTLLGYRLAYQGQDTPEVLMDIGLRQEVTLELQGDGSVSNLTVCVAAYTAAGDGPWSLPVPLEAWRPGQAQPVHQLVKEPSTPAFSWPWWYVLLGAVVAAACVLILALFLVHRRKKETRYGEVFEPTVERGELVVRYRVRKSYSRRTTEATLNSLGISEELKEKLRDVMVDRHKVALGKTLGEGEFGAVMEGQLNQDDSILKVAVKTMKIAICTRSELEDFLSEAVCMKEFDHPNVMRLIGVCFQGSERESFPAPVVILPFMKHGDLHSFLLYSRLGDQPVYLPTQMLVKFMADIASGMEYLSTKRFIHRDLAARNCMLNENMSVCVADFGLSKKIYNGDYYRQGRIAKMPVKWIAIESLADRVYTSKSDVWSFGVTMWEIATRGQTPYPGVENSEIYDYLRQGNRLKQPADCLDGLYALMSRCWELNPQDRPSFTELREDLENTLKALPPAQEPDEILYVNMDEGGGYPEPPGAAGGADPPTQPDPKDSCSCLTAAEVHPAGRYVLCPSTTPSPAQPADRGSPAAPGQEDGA
Description: as §1

The target in experiment [6] is T6, CSNK2A1 (Homo sapiens, UniProt P68400).
T6 construct: purchased DiscoverX (KINOMEscan)
Description: as §1

The mark [7] stands for this setting: 10 μM, n = 1, read-out: percent inhibition Aurora kinase A.
Where [8] appears, read: 10 µM, n=1, kinase AURKA, read-out: Percent inhibition AURKA.
[9] abbreviates: 10 µM, n=1, kinase FLT3, read-out: Percent inhibition FLT3.
[10] abbreviates: KINOMEscan, 10 µM, n=1, read-out: Percent inhibition, PDGFRA.
Setting [11] is: 10 μM, n = 1, read-out: percent inhibition CDK2.
[12] abbreviates: 10 µM, n=1, kinase CDK2, read-out: Percent inhibition CDK2.
Setting [13] is: 10 µM, n=1, kinase AXL, read-out: Percent inhibition AXL.
Setting [14] is: 10 µM, n=1, kinase CSNK2A1, read-out: Percent inhibition CSNK2A1.
Where [15] appears, read: 10 μM, n = 1, read-out: percent inhibition FLT3.
[16] abbreviates: 10 μM, n = 1, read-out: percent inhibition PDGFRα.

Read-outs that look alike come from different tables or passages of the source.

T6 sequence (P68400 whole entry): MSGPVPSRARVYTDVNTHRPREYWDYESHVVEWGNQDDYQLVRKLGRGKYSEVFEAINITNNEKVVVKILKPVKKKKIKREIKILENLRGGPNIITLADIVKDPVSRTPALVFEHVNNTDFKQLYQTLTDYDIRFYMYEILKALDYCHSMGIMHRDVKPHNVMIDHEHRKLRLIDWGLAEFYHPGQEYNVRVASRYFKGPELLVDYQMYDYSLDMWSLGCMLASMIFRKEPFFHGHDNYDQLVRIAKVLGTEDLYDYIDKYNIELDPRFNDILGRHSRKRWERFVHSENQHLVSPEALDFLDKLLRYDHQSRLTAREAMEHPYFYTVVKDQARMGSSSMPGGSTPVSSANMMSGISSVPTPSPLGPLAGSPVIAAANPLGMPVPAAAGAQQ
T3 sequence (P16234 24-1089): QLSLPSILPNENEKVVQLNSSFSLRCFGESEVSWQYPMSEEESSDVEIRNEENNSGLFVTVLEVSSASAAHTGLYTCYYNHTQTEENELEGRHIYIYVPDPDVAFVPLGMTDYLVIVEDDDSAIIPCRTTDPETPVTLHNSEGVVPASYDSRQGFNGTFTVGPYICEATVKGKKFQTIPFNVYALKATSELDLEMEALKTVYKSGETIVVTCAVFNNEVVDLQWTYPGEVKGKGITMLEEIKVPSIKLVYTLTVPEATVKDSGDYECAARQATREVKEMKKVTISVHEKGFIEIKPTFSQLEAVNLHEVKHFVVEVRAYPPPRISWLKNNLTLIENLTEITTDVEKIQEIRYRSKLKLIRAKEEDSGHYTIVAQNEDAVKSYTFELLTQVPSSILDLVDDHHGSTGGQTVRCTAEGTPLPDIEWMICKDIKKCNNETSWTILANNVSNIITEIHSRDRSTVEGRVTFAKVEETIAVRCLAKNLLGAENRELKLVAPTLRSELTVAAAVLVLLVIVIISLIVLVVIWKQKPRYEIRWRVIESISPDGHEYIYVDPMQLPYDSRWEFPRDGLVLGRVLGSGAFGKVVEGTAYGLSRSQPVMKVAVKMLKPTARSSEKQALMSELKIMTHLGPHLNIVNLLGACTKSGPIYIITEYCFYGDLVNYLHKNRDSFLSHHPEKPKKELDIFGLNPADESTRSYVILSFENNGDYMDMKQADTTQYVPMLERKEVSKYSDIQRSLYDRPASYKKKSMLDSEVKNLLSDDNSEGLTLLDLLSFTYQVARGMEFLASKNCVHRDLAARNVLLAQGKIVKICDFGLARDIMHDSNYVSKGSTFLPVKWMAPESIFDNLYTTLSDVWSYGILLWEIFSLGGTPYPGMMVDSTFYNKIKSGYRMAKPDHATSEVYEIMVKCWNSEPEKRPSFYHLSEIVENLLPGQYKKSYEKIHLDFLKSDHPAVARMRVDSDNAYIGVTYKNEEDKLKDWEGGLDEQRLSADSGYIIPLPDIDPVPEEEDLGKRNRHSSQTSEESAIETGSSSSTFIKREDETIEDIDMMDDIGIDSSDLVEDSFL

For the compound `CN1CCN(c2ccc(Nc3nccc(-c4cnn5ncccc45)n3)cc2C#N)CC1` [Compound 1], the inhibition at 10 µM in experiment [1] (setting [7]) is > 90%; in experiment [1] (setting [8]) it was 96.7%; in experiment [2] (setting [9]) it was 100%; in experiment [3] (setting [10]), 100%; in experiment [4] (setting [11]) it was > 99%; in experiment [4] (setting [12]) it was 99.5%. In addition, the inhibition at 10 µM in experiment [5] (setting [13]) and in experiment [6] (setting [14]) was 100% each time.
Take `COc1ccc(Nc2nccc(-c3cnn4ncccc34)n2)cc1` [Compound 2]: the inhibition at 10 µM in experiment [1] (setting [7]) was > 90%; in experiment [1] (setting [8]), 91.1%; in experiment [2] (setting [9]), 99.3%; in experiment [3] (setting [10]), 99.9%; in experiment [4] (setting [11]) it was > 99%; in experiment [4] (setting [12]) it was 99.9%. In addition, the inhibition at 10 µM stood at 77.8% in experiment [5] (setting [13]) and 82% in experiment [6] (setting [14]).
Turning to `Cc1ccc(O)cc1Nc1ccnc(Nc2cccc(C(N)=O)c2)n1` [Compound 3], the inhibition at 10 µM came to 91.3% in experiment [1] (setting [8]); 89% in experiment [2] (setting [9]); 99.2% in experiment [3] (setting [10]); 0% in experiment [4] (setting [12]); 0% in experiment [5] (setting [13]); 0% in experiment [6] (setting [14]).
As for `Cc1ccc(O)cc1N(C)c1ccnc(Nc2cccc(S(N)(=O)=O)c2)n1` [Compound 4], the inhibition at 10 µM in experiment [1] (setting [8]) was determined as 79.6%; in experiment [2] (setting [9]), 92.3%; in experiment [3] (setting [10]) it was 100%; in experiment [4] (setting [12]), 0%; in experiment [5] (setting [13]), 0%; in experiment [6] (setting [14]) it was 0%.
As to `Fc1cccc(COc2ccc(Nc3ncnc4c3CN(CCN3CCOCC3)CC4)cc2Cl)c1` [Compound 6], the inhibition at 10 µM in experiment [1] (setting [8]), in experiment [2] (setting [9]), in experiment [3] (setting [10]), in experiment [4] (setting [12]), in experiment [5] (setting [13]) and in experiment [6] (setting [14]) was 0% each time.
As to `COc1cc(Nc2nccc(-c3sc(N)nc3-c3cccc(NC(=O)c4c(F)cccc4F)c3)n2)cc(OC)c1OC` [Compound 7], the inhibition at 10 µM worked out at 99.5% in experiment [1] (setting [8]); 99.8% in experiment [2] (setting [9]); 100% in experiment [3] (setting [10]); 0% in experiment [4] (setting [12]); 99% in experiment [5] (setting [13]); 0% in experiment [6] (setting [14]).
Turning to `C[C@@H](Oc1cc(-c2cnc3ccccn23)sc1C(N)=O)c1ccccc1Cl` [Compound 8], the inhibition at 10 µM in experiment [1] (setting [8]) amounted to 0%; in experiment [2] (setting [9]), 98.6%; in experiment [3] (setting [10]), 0%; in experiment [4] (setting [12]), 0%; in experiment [5] (setting [13]), 89%; in experiment [6] (setting [14]) it was 94.6%.
With `c1ccc(COc2cccc(-c3ccnc4[nH]ccc34)c2)cc1` [Compound 9], the inhibition at 10 µM in experiment [1] (setting [8]) is 0%; in experiment [2] (setting [15]), ≥ 90%; in experiment [2] (setting [9]), 91.1%; in experiment [3] (setting [10]) it was 0%; in experiment [4] (setting [12]), 0%; in experiment [5] (10 μM, n = 1, read-out: percent inhibition AXL) it was ≥ 90%. Moreover, the inhibition at 10 µM is 93.8% in experiment [5] (setting [13]); ≥ 99% in experiment [6] (10 μM, n = 1, read-out: percent inhibition CSNK2A1); 100% in experiment [6] (setting [14]).
Regarding `Clc1ccc(Nc2ncc(-c3ccccc3)s2)cc1` [Compound 10], the inhibition at 10 µM was 0% in experiment [1] (setting [8]); > 90% in experiment [2] (setting [15]); 97.1% in experiment [2] (setting [9]); > 90% in experiment [3] (setting [16]); 98.9% in experiment [3] (setting [10]); 0% in experiment [4] (setting [12]). Besides, the inhibition at 10 µM in experiment [5] (setting [13]) and in experiment [6] (setting [14]) was 0% throughout.
In the case of `Nc1ncc2c(-c3ccncc3)c[nH]c2n1` [Compound 11], the inhibition at 10 µM in experiment [1] (setting [8]) is 0%; in experiment [2] (setting [9]) it was 94.5%; in experiment [3] (setting [16]), ≥ 99%; in experiment [3] (setting [10]), 100%; in experiment [4] (setting [12]), 0%; in experiment [5] (setting [13]), 0%. Moreover, in experiment [6] (setting [14]), the inhibition at 10 µM amounted to 0%.

A word on the inhibition: it is the drop in the measured response relative to a control, in per cent.

The values above are taken from paper PMC9927415, “Tyrosine Kinase Inhibitors Display Potent Activity against Cryptosporidium parvum” (Microbiology Spectrum, 2022).
